According to US10633389B2, “CARM1 inhibitors and uses thereof” (Epizyme, Inc., priority 2013, dated 2020):

Tested on: asymmetric di-methyl PABP1 in RKO cells
Assay: RKO methylation assay, In Cell Western (ICW) for asymmetric di-methyl PABP1
Assay type: cell-based
Conditions: Homo sapiens, RKO, Cellular potencies, ICW PABP1me2a
Summary of the method: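 In-cell Western on fixed RKO cells after 48 h compound exposure: anti-asymmetric di-methyl PABP1 signal at 800 nm over DRAQ5 DNA signal at 700 nm. Percent inhibition set between DMSO wells and wells with 20 μM reference compound; IC50 curves fitted in triplicate.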

IC50 [µM] | Compound
10 to 20 | CNCC(O)COc1cccc(-c2nc(N[C@@H]3CCOC3)c(C)c(N3CCC3)n2)c1 (some centres unmarked) [Example 377-1a]
< 5 | CNC[C@@H](O)COc1ccc(Cl)c(-c2nc(N[C@H]3CCO[C@@H](C)C3)c(Cl)c(-c3c(C)noc3C)n2)c1 [Example 149-3]
< 5 | CNCC(O)COc1cccc(-c2nc(N[C@@H]3CCOC[C@@H]3OC)c(C)c(-c3c(C)noc3C)n2)c1 (some centres unmarked) [Example 220-1a]
< 5 | CNCC(O)COc1cccc(-c2nc(NC3CCOCC3)c(F)c(-c3c(C)noc3C)n2)c1 (centres unmarked) [Example 96-1a]
< 5 | CNCC(O)COc1cccc(-c2nc(OCC3CCN(C(=O)OCc4ccccc4)CC3)c(C)c(-c3c(C)noc3C)n2)c1 (centres unmarked) [Example 259-1a]
< 5 | CNCC(O)COc1cccc(-c2nc(NC3CCN(C(=O)C4CC4)CC3)c(C)c(-c3c(C)noc3C)n2)c1 (centres unmarked) [Example 245-1a]
< 5 | CNCC(O)COc1cccc(-c2nc(N[C@@H]3CCN(C4CC4)C[C@@H]3F)c(C)c(-c3c(C)noc3C)n2)c1 (some centres unmarked) [Example 260-1a]
< 5 | CNCC(O)COc1ccc(Cl)c(-c2nc(NCC3CCOC3)c(C)c(-c3c(C)noc3C)n2)c1 (centres unmarked) [Example 30-3]
< 5 | CNCC(O)COc1cccc(-c2nc(OC3CCOCC3)c(C)c(-c3c(C)noc3C)n2)c1 (centres unmarked) [Example 181-1a]
< 5 | CNC[C@@H](O)COc1ccc(Cl)c(-c2nc(-c3c(C)noc3C)c(C)c(N3Cc4cc(C)cnc4C3)n2)c1 [Example 296-3]
< 5 | CNC[C@@H](O)COc1ccc(Cl)c(-c2nc(N[C@@H]3CCO[C@H](C)C3)c(Cl)c(-c3c(C)noc3C)n2)c1 [Example 155-3]
< 5 | CNC[C@@H](O)COc1ccc(Cl)c(-c2nc(-c3c(C)noc3C)cc(N3Cc4nccnc4C3)n2)c1 [Example 251-3]
< 5 | CNCC(O)COc1cccc(-c2nc(N[C@@H]3CC[C@H](O)C3)c(C)c(-c3c(C)noc3C)n2)c1 (some centres unmarked) [Example 163-1a]
< 5 | CNCC(O)COc1cccc(-c2nc(N3CCOCC3)c(F)c(N(C)C3CCOCC3)n2)c1 (centres unmarked) [Example 500-1a]
< 5 | CNCC(O)COc1cccc(-c2nc(NC3CCCC3)c(C)c(-c3c(C)noc3C)n2)c1 (centres unmarked) [Example 241-1a]
< 5 | CNC[C@@H](O)COc1ccc(Cl)c(-c2nc(-c3c(C)noc3C)c(C)c(N3CC4(CCN(C(=O)OC)CC4)C3)n2)c1 [Example 109-3]
10 to 20 | CNCC(O)COc1cccc(-c2nc(N[C@@H]3CCOC3)c(C)c(N3CCS(=O)(=O)CC3)n2)c1 (some centres unmarked) [Example 425-1a]
10 to 20 | CNCC(O)COc1cccc(-c2nc(-c3ccncc3)c(C)c(N(C)[C@@H]3CCOC3)n2)c1 (some centres unmarked) [Example 339-1a]
< 5 | CCS(=O)(=O)N1CCC(Nc2nc(-c3cccc(OCC(O)CNC)c3)nc(-c3c(C)nsc3C)c2C)CC1 (centres unmarked) [Example 70-3]
< 5 | CNC[C@@H](O)COc1ccc(Cl)c(-c2nc(-c3c(C)noc3C)c(Cl)c(N3Cc4nc(C)sc4C3)n2)c1 [Example 243-3]
< 5 | CNC[C@@H](O)COc1ccc(Cl)c(-c2nc(N[C@H]3CN(C4CC4)C[C@@H]3F)c(C)c(-c3c(C)noc3C)n2)c1 [Example 203-3]
< 5 | CCS(=O)(=O)N1CCN(c2nc(-c3cccc(OCC(O)CNC)c3)nc(NC3CCOC3)c2C)CC1(C)C (centres unmarked) [Example 448-1a]

IC50 [µM] | Compound
< 5 | CNC[C@H](O)COc1ccc(Cl)c(-c2nc(NC3CCN(C(=O)OC)CC3)c(C)c(-c3c(C)noc3C)n2)c1 [Example 89-3]
≥ 20 | CNCC(O)COc1cc(Cl)cc(-c2nc(NC3CCNCC3)cc(-c3ccncc3)n2)c1 (centres unmarked) [Example 665-1a]
< 5 | CNCC(O)COc1ccc(Cl)c(-c2nc(NC[C@@H]3CCCO3)c(C)c(-c3c(C)noc3C)n2)c1 (some centres unmarked) [Example 7-3]
< 5 | CNCC(O)COc1cccc(-c2nc(-c3c(C)noc3C)cc(N3CCN(C)[C@@H](C)C3)n2)c1 (some centres unmarked) [Example 93-1a]
< 5 | CNCC(O)COc1cccc(-c2nc(NCC3(N(C)C)CCOCC3)c(C)c(-c3c(C)noc3C)n2)c1 (centres unmarked) [Example 140-1a]
< 5 | CNC[C@@H](O)COc1ccc(Cl)c(-c2nc(NC[C@@H]3CCCO3)c(C)c(-c3c(C)noc3C)n2)c1 [Example 131-3]
5 to 10 | CNCC(O)COc1cccc(-c2nc(N[C@@H]3CCOC3)c(C)c(N3CCCC4(CN(CC(F)F)C4)C3)n2)c1 (some centres unmarked) [Example 469-1a]
< 5 | CNC[C@@H](O)COc1ccc(F)c(-c2nc(N[C@H]3CCN(C(=O)OC)C[C@H]3F)c(C)c(-c3c(C)noc3C)n2)c1 [Example 64-3]
< 5 | CNCC(O)COc1cccc(-c2nc(-c3csnc3C)cc(N(C)C3CCOCC3)n2)c1 (centres unmarked) [Example 493-1a]
10 to 20 | CNCC(O)COc1cccc(-c2nc(N[C@@H]3CCOC3)c(C)c(N3CCN(CC(=O)N(C)C)CC3)n2)c1 (some centres unmarked) [Example 391-1a]
< 5 | CNC[C@@H](O)COc1ccc(Cl)c(-c2nc(-c3c(C)noc3C)cc(N3CC4(CCOCC4)C3)n2)c1 [Example 249-3]
< 5 | CNCC(O)COc1cccc(-c2nc(NC3CCN(CC(F)F)C3)c(C)c(-c3c(C)noc3C)n2)c1 (centres unmarked) [Example 195-1a]
5 to 10 | CNCC(O)COc1cccc(-c2nc(Nc3cncnc3)cc(-c3c(C)noc3C)n2)c1 (centres unmarked) [Example 21-1a]
< 5 | CCOC(=O)N1CCOC[C@@H]1CNc1nc(-c2cccc(OC[C@@H](O)CNC)c2)nc(-c2c(C)noc2C)c1C [Example 278-1a]
10 to 20 | CNCC(O)COc1cccc(-c2nc(N[C@H]3C[C@@H](O)C3)cc(-c3c(C)noc3C)n2)c1 (some centres unmarked) [Example 41-1a]
< 5 | CNC[C@@H](O)COc1ccc(Cl)c(-c2nc(N[C@@H]3CCN(C)C[C@@H]3F)c(C)c(-c3c(C)noc3C)n2)c1 [Example 194-3]
< 5 | CNC[C@@H](O)COc1ccc(F)c(-c2nc(-c3c(C)noc3C)c(C)c(N3Cc4cc(F)cnc4C3)n2)c1 [Example 164-3]
< 5 | CCOC(=O)N1CCC2(C1)CN(c1nc(-c3cc(OC[C@H](O)CNC)ccc3Cl)nc(-c3c(C)noc3C)c1C)C2 [Example 287-3]
< 5 | CNC[C@@H](O)COc1ccc(Cl)c(-c2nc(-c3c(C)noc3C)c(C)c(N3CC4(CCOCC4)C3)n2)c1 [Example 118-3]
5 to 10 | CNCC(O)COc1cccc(-c2nc(-c3c(C)noc3C)c(C)c(N3CCO[C@@H](C)C3)n2)c1 (some centres unmarked) [Example 209-1a]
10 to 20 | CNCC(O)COc1cccc(-c2nc(N3CCN4C(=O)OC[C@@H]4C3)cc(N(C)C3CCOCC3)n2)c1 (some centres unmarked) [Example 576-1a]
10 to 20 | CNCC(O)COc1cccc(-c2nc(-c3ccc(C(F)(F)F)nc3)cc(N(C)C3CCOCC3)n2)c1 (centres unmarked) [Example 613-1a]

IC50 [µM] | Compound
< 5 | CNCC(O)COc1cccc(-c2nc(NC3CC(F)C3)c(C)c(-c3c(C)noc3C)n2)c1 (centres unmarked) [Example 3-3]
< 5 | CNC[C@@H](O)COc1ccc(Cl)c(-c2nc(-c3c(C)noc3C)c(C)c(N3Cc4ccncc4C3)n2)c1 [Example 159-3]
< 5 | CNCC(O)COc1cccc(-c2nc(-c3c(C)noc3C)cc(N3CCN(S(C)(=O)=O)[C@H](C)C3)n2)c1 (some centres unmarked) [Example 147-1a]
< 5 | CNC[C@H](O)COc1ccc(Cl)c(-c2nc(-c3c(C)noc3C)c(C)c(N3CCN(C)C(C(F)F)C3)n2)c1 (some centres unmarked) [Example 74-3]
10 to 20 | CNCC(O)COc1cc(Cl)cc(-c2nc(-c3ccncc3)c(C)c(N(C)[C@H]3CCOC3)n2)c1 (some centres unmarked) [Example 334-1a]
< 5 | CNCC(O)COc1cccc(-c2nc(-c3c(C)noc3C)c(C)c(N3CCO[C@H](CN(C)C)C3)n2)c1 (some centres unmarked) [Example 151-1a]
< 5 | CNCC(O)COc1cccc(-c2nc(N[C@H]3CC[C@H](OC)C3)c(C)c(-c3c(C)noc3C)n2)c1 (some centres unmarked) [Example 234-1a]
10 to 20 | CNCC(O)COc1cccc(-c2nc(N(C)C3CCOCC3)cc(N3C[C@@H]4C[C@H]3CN4C)n2)c1 (some centres unmarked) [Example 543-1a]
< 5 | CNC[C@@H](O)COc1ccc(Cl)c(-c2nc(N[C@@H]3C[C@@H](C)O[C@@H](C)C3)c(C)c(-c3c(C)noc3C)n2)c1 [Example 182-3]
10 to 20 | CNCC(O)COc1cccc(-c2nc(NC3CCOCC3)cc(-c3cnn(CC(C)C)c3)n2)c1 (centres unmarked) [Example 51-1]
10 to 20 | CNCC(O)COc1cccc(-c2nc(-c3c(C)noc3C)cc(N3CCNC(C)(C)C3)n2)c1 (centres unmarked) [Example 36-1a]
< 5 | CNCC(O)COc1cccc(-c2nc(NC3CCCN(C(=O)C4CC4)C3)c(C)c(-c3c(C)noc3C)n2)c1 (centres unmarked) [Example 247-1a]
10 to 20 | CNCC(O)COc1cccc(-c2nc(NC3CCOC3)c(C)c(N3CCNC[C@H]3C)n2)c1 (some centres unmarked) [Example 352-1a]
< 5 | CCS(=O)(=O)N1CCC(CNc2nc(-c3cccc(OCC(O)CNC)c3)nc(-c3c(C)noc3C)c2C)CC1 (centres unmarked) [Example 192-1a]
10 to 20 | CNCC(O)COc1cccc(-c2nc(N3CCC[C@H](O)C3)cc(N(C)C3CCOCC3)n2)c1 (some centres unmarked) [Example 538-1a]
10 to 20 | CNCC(O)COc1cccc(-c2nc(N(C)C3CCOCC3)c(C)c(N3CCNC[C@@H]3C)n2)c1 (some centres unmarked) [Example 567-1a]
< 5 | CNCC(O)COc1cccc(-c2nc(NC3CCC3)c(C)c(-c3c(C)noc3C)n2)c1 (centres unmarked) [Example 292-1a]
10 to 20 | CNCC(O)COc1cccc(-c2nc(-c3sc(C)nc3C)cc(N(C)C3CCOCC3)n2)c1 (centres unmarked) [Example 569-1a]
5 to 10 | CNCC(O)COc1cccc(-c2nc(N[C@@H]3CCOC3)c(C)c(N3CCOCC3)n2)c1 (some centres unmarked) [Example 3-1]
< 5 | CCN1CCC[C@H]1CNc1nc(-c2cc(OC[C@@H](O)CNC)ccc2Cl)nc(-c2c(C)noc2C)c1C [Example 48-3]
< 5 | CNCC(O)COc1cccc(-c2nc(NCC3CCN(C4CC4)CC3)c(C)c(-c3c(C)noc3C)n2)c1 (centres unmarked) [Example 283-1a]
< 5 | CNCC(O)COc1cccc(-c2nc(-c3c(C)noc3C)cc(N3CCN(CC(F)F)[C@H](C)C3)n2)c1 (some centres unmarked) [Example 174-1a]

Compound | IC50 [µM]
CNCC(O)COc1cccc(-c2nc(NC3C[C@H]4CC[C@@H](C3)N4C(=O)OC)c(C)c(-c3c(C)noc3C)n2)c1 (some centres unmarked) [Example 242-1a] | < 5
CNCC(O)COc1cccc(-c2nc(-c3ccncc3)cc(N(C)C3CCNCC3)n2)c1 (centres unmarked) [Example 669-1a] | ≥ 20
